# From patent US11230570B2, “Peptide for regulating reactivity to serotonin reuptake inhibitor based antidepressant, and use thereof” (DAEGU GYEONGBUK INSTITUTE OF SCIENCE AND TECHNOLOGY, priority 2018, dated 2022)
# Where a name gives a salt, the structure may show the parent alone. No end group written: not given here.
# Legend:
# [1] = test system: mossy cells; assay: Electrophysiological recording of hippocampal mossy cells in brain slices; type: cell-based, mouse; settings: for activity of mossy cells: CNO perfused on slices
# Source text: Electrophysiological Evaluation of Hippocampal Mossy Cells […] To label and visualize mossy cells in hippocampal slices, a recombinant AAV vector (AAV2.EF1α.DIO.AcGFP1-myc) was bilaterally injected into the dentate hilus of the ventral hippocampus in […]. AcGFP1 was selectively expressed in the mossy cells. While recording the electrophysiological evaluation, the morphology, membrane capacitance and electrophysiological properties of the mossy cells were further confirmed. (2) Preparation of Slices 12-15-week male mice were euthanized with CO2. Subsequently, their brains were extracted and placed in an N-Methyl-D-glucamine-containing cutting solution (93 mM NMDG, 2.5 mM KCl, 1.2 mM NaH2PO4, 30 mM NaHCO3, 25 mM glucose, 20 mM HEPES, 5 mM sodium ascorbate, 3 mM sodium pyruvate, 2 mM thiourea, 0.5 mM CaCl2), 10 mM MgSO4. pH 7.4, 295-305 mM mOsm) on cold ice. The brain tissue slices (400-μm thickness) containing the ventral hippocampus were prepared using a VT1000 S Vibratome (Leica Microsystems Inc., Buffalo Grove, Ill., USA). After cutting, slices were allowed to recover in the cutting solution at 37° C. for 15 minutes, and then transferred to a recording solution at room temperature for at least 1 hour before recording of the electrophysiological evaluation. (3) Electrophysiological Recording Electrophysiological recordings were performed as described above. During recording, brain slices were placed in a perfusion chamber attached to a fixed stage of an upright microscope BX51WI (Olympus, Tokyo, Japan), and immersed in a continuously flowing oxygenated recording solution. Components contained in the solution are as follows: 125 mM NaCl, 25 mM NaHCO3, 25 mM glucose, 2.5 mM KCl, 1.25 mM NaH2PO4, 2 mM CaCl2) and 1 mM MgCl2, pH 7.4, 295-305 mM mOsm. Neurons were visualized with a 40× water immersion lens using near infrared (IR) light. Electrophysiological recording was performed using a Multiclamp 700B/Digidata 1440A system (Molecular Devices, Sunnyvale, Calif., USA). Patch electrodes were filled with an internal solution (126 mM K-gluconate, 10 mM KCl, 10 mM HEPES, 10 mM phosphocreatine, 4 mM ATP and 0.3 mM GTP, pH 7.3, 290 mM mOsmol). Whole-cell patch-clamp recordings were used to record spontaneous action potentials of mossy cells in the hippocampal slides, and all recording was performed at 37° C. […] In addition, CNO (1 mM) was perfused on the brain tissue slices to confirm the effect of Gi-DREADD. Experimental data was analyzed by pClamp10 software (Molecular Devices) and GraphPad Prism 6 (GraphPad Software, La Jolla, Calif., USA).
# [2] = test system: mice; assay: Novelty suppressed feeding test (NSF/NFS); type: in vivo, mouse; settings: in s (unit assumed); for NSF test latency: CNO 0.3 mg/kg
# Method: For chronic drug administration, 2 to 5 mice were housed in each cage. Fluoxetine hydrochloride (Spectrum Chemicals, USA) was intraperitoneally injected (10 mg kg-1 day-1) daily for 3 weeks. The drug was prepared by being dissolved in dimethyl sulfoxide (50%), and diluted with saline. For a control, a drug-free vehicle solution (0.9% saline) was administered daily. For a Gi-DREADD mouse experiment, clozapine-N-oxide (CNO; Sigma-Aldrich, USA) was directly dissolved in a 0.9% saline solution. A dose of CNO was 0.3 mg/kg, and 2 hours before each behavioral test, 100 μl/10 g of a solution per body weight was intraperitoneally injected.
# (4) Novelty Suppressed Feeding Test (NSF)
# (§1) The test was carried out for 15 minutes by partially changing a conventional method. 24 hours before behavioral testing, all food provided to the home cage was removed. […], a single 1.8-cm square-shaped food pellet was placed on a white filter paper positioned in the center of the test box. The mouse was placed in the corner of an open field, and a stopwatch was immediately operated. The latency to first bite food was recorded. Immediately after the test, the mice were placed in the home cage, and the amount of food intake was measured for 10 minutes.
# [3] = test system: mice; assay: Home cage feeding (HCF) test; type: in vivo, mouse; settings: for home cage feeding level: control AcGFP1 and PASIP-AcGFP1 mice, chronic fluoxetine
# Method: as §1
# [4] = test system: BrdU+ proliferating cells in the subgranular zone of the dentate gyrus; assay: BrdU labeling and neurogenic analysis; type: in vivo, mouse
# Method: 1-8. BrdU Labeling and Neurogenic Analysis
# Before the mice were sacrificed, a BrdU solution (200 mg/kg) was intraperitoneally administered for 3 hours. After transcardial perfusion, brain tissue was fixed with 4% PFA overnight, coronal sections with a 40-μm thickness were collected along the hippocampal rostro-caudal axis using a cryostat (CM3050S, Leica). The sections were processed using a free-floating method. Every sixth section throughout the hippocampus was subjected to BrdU immunohistochemical staining. Afterward, sections were pre-incubated with 1M HCl at 45° C. for 30 minutes to denature DNA, and washed three times with 0.1M PBS for neutralization. Immunohistochemistry was performed with α-BrdU (rat polyclonal, 1:200, Abcam, Cambridge, Mass., USA) and Alexa-Fluor™-conjugated secondary antibodies (1:400, Life Technologies, USA). A tester who was not given information on a slide code counted BrdU-labeled cells in the granule cell layer (GCL) and the subgranular zone (SGZ) of the dentate gyrus (DG) in the total of 12 sections derived from individual mice. The total number of BrdU-labeled cells per section was determined and multiplied by 6 to obtain the total number of cells per dentate gyrus.
# [5] = test system: mice; assay: Tail suspension test (TST); type: in vivo, mouse; settings: for inactivity (immobility) in TST: in s (unit assumed)
# Method: (5) Tail Suspension Test (TST) Mice were suspended by tails for 6 minutes. A test session was videotaped, and their immobility was scored using automated TST analysis software of Clever System (Reston, Va., USA). The immobility time during the last 4 minutes (excluding the initial 2 minutes) was calculated.
# [6] = test system: newborn postmitotic cells (DCX); assay: Doublecortin (DCX) immunostaining of immature neurons; type: in vivo, mouse; settings: chronic fluoxetine administration, control mice
# Method: 1-7. Immunohistochemistry
# Immunostaining was carried out using the standard free-floating method. Sections were washed three times with PBS for 10 minutes each time, and incubated with 2% normal donkey serum, 0.2% bovine serum albumin and 0.3% Triton-X100. After blocking, the sections were incubated with primary antibodies diluted with a blocking buffer overnight at 4° C., the following primary antibodies were used: α-doublecortin (goat polyclonal, 1:200, Santa Cruz Biotech.), α-calretinin (mouse monoclonal, 1:500, SWANT), α-parvalbumin (rabbit polyclonal, 1:1000, SWANT), α-neuropeptide Y (rabbit polyclonal, 1:1000, Phoenix Pharmaceutical), α-GluR2/3 (rabbit polyclonal, 1:100, Millipore). After incubation for 24 hours, the sections were washed three times with PBS containing 0.2% Triton-X100 (PBS-T) for 10 minutes, and then incubated with Alexa-Fluor™-conjugated secondary antibodies (1:400, Life Technologies, USA) at room temperature for 3 hours. The sections were washed three times with PBS-T at room temperature for 10 minutes, and covered with a Prolong™ Gold, anti-fading mounting medium (Life Technologies, USA).
# [7] = target: T1, p11/AnxA2/SMARCA3 complex (Homo sapiens, UniProt P07355+P60903); assay: Immunoprecipitation of p11/AnxA2/SMARCA3 complex in HEK293 cells; type: binding; settings: in vitro immunoprecipitation with α-SMARCA3, HEK293 cells
# T1 construct: endogenous in cells; host or cells: HEK293 (CRL-1573, ATCC)
# T1 sequence (P60903 whole entry): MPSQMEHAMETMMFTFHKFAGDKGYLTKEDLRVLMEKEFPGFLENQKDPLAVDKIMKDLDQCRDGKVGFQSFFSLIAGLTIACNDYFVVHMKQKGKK
# T1 sequence (P07355 2-339 limits assumed): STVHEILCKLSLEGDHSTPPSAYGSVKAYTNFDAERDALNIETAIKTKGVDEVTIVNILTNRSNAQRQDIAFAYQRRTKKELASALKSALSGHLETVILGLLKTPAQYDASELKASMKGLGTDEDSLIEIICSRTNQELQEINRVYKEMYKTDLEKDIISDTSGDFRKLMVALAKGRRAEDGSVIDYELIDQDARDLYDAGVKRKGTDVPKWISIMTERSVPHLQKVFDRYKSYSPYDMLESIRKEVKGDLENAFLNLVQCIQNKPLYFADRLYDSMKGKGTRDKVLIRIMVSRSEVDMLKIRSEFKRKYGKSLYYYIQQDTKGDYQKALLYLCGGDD
# Method: 1-4. Immunoprecipitation of p11/AnxA2/SMARCA3 Complex
# HEK293 cells (CRL-1573, ATCC) were transfected with a CMV-Cre plasmid, and 24 hours after transfection, transfected with an AAV vector expressing the control AcGFP1 or PASIP-AcGFP1 construct. Immunoprecipitation was performed with α-SMARCA3 antibodies (rabbit polyclonal antibodies prepared with immunized peptides). Immunoblotting was performed using the following antibodies according to a standard protocol: α-p11 (mouse monoclonal, 1:1000, BD Biosciences), α-p11 (goat polyclonal, 1:200, R&D Systems), α-SMARCA3 (goat polyclonal, 1:200, NOVUS), α-AnxA2 (mouse monoclonal, Santa Cruz Biotech.), α-GFP (goat polyclonal, Santa Cruz Biotech).
# [8] = test system: mice; assay: Light and dark box test; type: in vivo, mouse; settings: PASIP-AcGFP1 mice vs control AcGFP1 154±16; p<0.01
# Method: (3) Light and Dark Box Test (LD Box)
# Mice were placed in an open field area (40×40×40 cm). A black box was inserted into the open field. The mice were placed into light compartments at the beginning of a session, and allowed to freely move between the compartments for 10 minutes. The time spent in each compartment and the latency to first enter the dark compartment were measured using automated Superflex™ software.
compound,measurement,setting,value
"C[N+]1([O-])CCN(C2=Nc3cc(Cl)ccc3Nc3ccccc32)CC1 [CNO, clozapine-N-oxide]",activity of mossy cells,"[1]; Gi-DREADD mice, mCherry-labeled mossy cells",silenced
same,activity of mossy cells,[1]; control mCherry mice,not in control mice
"CNCCC(Oc1ccc(C(F)(F)F)cc1)c1ccccc1 (stereo not shown) [FLX, Fluoxetine hydrochloride]",NSF test latency,"[2]; Gi-DREADD mice, chronic FLX (SAL 450±36)",365±40
same,latency to access a food pellet,"[2]; Smarca3f/f control mice (D2-Cre experiment), chronic FLX (SAL 257±47)",104±12
same,latency to access a food pellet,"[2]; Smarca3f/f control mice (MC-Cre experiment), chronic FLX (SAL 338±20)",229±40
same,latency to access a food pellet,"[2]; Smarca3f/f;D2-Cre conditional knockout mice, chronic FLX (SAL 192±15)",232±32
same,latency to access a food pellet,"[2]; Smarca3f/f;MC-Cre conditional knockout mice, chronic FLX (SAL 405±88)",404±69
same,NSF test latency,"[2]; control (mCherry) mice, chronic FLX (SAL 484±85)",238±40
same,latency to feed,"[2]; control AcGFP1 mice, chronic fluoxetine (SAL 296±48)",147±22
same,latency to access a food pellet,"[2]; p11f/f control mice, chronic FLX 10 mg/kg/day i.p. 3 weeks (SAL 351±38)",165±24
same,latency to access a food pellet,"[2]; p11f/f;D2-Cre conditional knockout mice, chronic FLX (SAL 364±46)",296±58
same,home cage feeding level,[3],did not have a significant influence
same,food intake after coming back to the home cage,"[3]; control and p11 / Smarca3 cKO mice, chronic SSRI",no change in food intake
same,number of BrdU+ proliferating cells in the subgranular zone,"[4]; Gi-DREADD mice, chronic FLX (SAL 172±27)",232±20
same,number of BrdU+ proliferating cells in the subgranular zone,"[4]; control (mCherry) D2-Cre mice, chronic FLX (SAL 177±18)",337±37
same,BrdU+ proliferating cells,"[4]; control mice, chronic fluoxetine (SAL 173±16)",290±43
same,inactivity (immobility) in TST,"[5]; Gi-DREADD mice, chronic FLX (SAL 128±9)",129±10
same,inactivity (immobility) in TST,"[5]; control (mCherry) mice, chronic FLX (SAL 141±9)",110±9
same,mossy cell activity (spontaneous firing rate),[1]; acute fluoxetine treatment,had no effect on mossy cell activity
same,spontaneous firing rate of mossy cells,[1]; chronic fluoxetine treatment (control 2.36±0.41 Hz),4.19±0.92 Hz
same,survival and differentiation of newborn neuronal progenitors (DCX expression),[6],enhanced the survival of newborn neuronal progenitors and promoted differentiation into mature neurons
"PASIP-AcGFP1: p11/AnxA2/SMARCA3 complex inhibitory peptide-AcGFP1 fusion construct, expressed from a Cre-dependent AAV vector (GNGNGKVTFPKMKIPKFSGR; also: fused to AcGFP1)",latency to feed,"[2]; PASIP-AcGFP1 mice, SAL",304±51
same,latency to feed,"[2]; PASIP-AcGFP1 mice, chronic FLX",293±54
same,home cage feeding level,[3],did not have a significant influence
same,assembly of the p11/AnxA2/SMARCA3 complex,[7],able to block the assembly of the p11/AnxA2/SMARCA3 complex
same,BrdU+ proliferating cells,"[4]; PASIP-AcGFP1 mice (AAV, mossy cells), SAL",119±27
same,BrdU+ proliferating cells,"[4]; PASIP-AcGFP1 mice (AAV, mossy cells), chronic FLX",129±13
same,light/dark box test,[8],94±13
same,effect of fluoxetine in tail-suspension test,"[5]; PASIP-AcGFP1 mice, chronic fluoxetine",reduced an effect caused by fluoxetine administration
same,firing rate of mossy cells,[1]; mossy cells expressing construct (control AcGFP1 3.58±0.56 Hz),0.64±0.10 Hz
same,resting membrane potential in mossy cells,[1]; mossy cells expressing construct (control AcGFP1 −47.33±1.77 mV),−54.33±1.32 mV
